This note sets out measurements from patent US6572788B2, “Amine oxide wood preservatives” (Lonza, Inc., priority 2000, dated 2003).

Assay [1] relates to stains, molds, and fungi. The assay is described as follows: Wood preserving efficacy on freshly cut tulip wood (dip treatment). Further: key: 4 - Clean with no visible stain or mold; 3 - Trace amount of white/black fungal growth; 2 - Black and/or white fungal growth visible on all faces and ends; 1 - Heavy fungal growth. The protocol:
The wood preserving efficacy of each aqueous test solution in Table 17 below was tested on freshly cut tulip wood (also known as Tulip-Popular, Yellow Popular, and Liriodendron tulipfera L.) as follows. All percentages in Table 17 are by weight. Pieces of tulip wood cut from a 4″ debarked branch were cut into pieces. Each piece was then split into 4 sections. Each section was dipped into the test solution for about 1 minute and blotted with a paper towel to remove excess liquid. The sections were sealed in a clear plastic bag and stored at ambient conditions. The sections were observed after 1, 3, 7, and 11 weeks for the growth of stains, molds, and fungi. The aqueous test solutions were prepared by mixing the active ingredient with water.

The test system of assay [2] is stains, molds, and fungi. Nature of the assay: Wood preserving efficacy on freshly cut green chestnut oak (dip treatment). Set-up: scale not given here.
In assay [3] the test system is Trametes versicolor (T. versicolor), a white rot fungus. The assay is described as follows: Agar plate method, fungus growth inhibition. Conditions: 50% retardation of growth. The assay is classed as cell-based. The protocol:
(§1) The efficacy of aqueous solutions of amine oxides and didecyldimethyl ammonium chloride to inhibit fungus growth was evaluated by the agar plate method known in the art. […] The fungi tested were Trametes versicolor (T. versicolor), a white rot fungus; Gloeophyllum trabeum (G. trabeum), a brown rot fungus which is tolerant of arsenic and phenolic type wood preservatives; Poria placenta (P. placenta), a brown rot fungus which is tolerant to copper in wood preservatives; Lentinus lepideus (L. lepideus), a brown rot fungus which is tolerant to creosote; Coniophora puteana (C. puteana), a brown rot fungus; and Chaetomium globsum (C. globsum), a soft rot fungus.

Assay [4] deals with Gloeophyllum trabeum (G. trabeum), a brown rot fungus. The assay is described as follows: Agar plate method, fungus growth inhibition. The assay is classed as cell-based. The protocol: as §1
For assay [5], the system named is Poria placenta (P. placenta), a brown rot fungus. Nature of the assay: Agar plate method, fungus growth inhibition. The assay is classed as cell-based. The protocol: as §1
Assay [6] relates to Chaetomium globsum (C. globsum), a soft rot fungus. Nature of the assay: Agar plate method, fungus growth inhibition. In kind it is cell-based. The protocol:
as §1

The subject of assay [7] is stains, molds, and fungi. Nature of the assay: Wood preserving efficacy on freshly cut beech wood (dip treatment). Further: key: 4 - Clean with no visible stain or mold; 3 - Trace amount of white/black fungal growth; 2 - Black and/or white fungal growth visible on all faces and ends; 1 - Heavy fungal growth. Conditions: beech wood pieces (Example 15). The protocol: The wood preserving efficacy of each aqueous test solution in Table 18 below was tested on freshly cut beech wood (Fagus grandifolia Ehrh.) as follows. All percentages in Table 18 are by weight. A 1″ branch of a beech tree was split into two pieces. The bark was left on the pieces. Each piece was dipped into the test solution for about 1 minute and blotted with a paper towel to remove excess liquid. […] The aqueous test solutions were prepared by mixing the active ingredient with water.

The subject of assay [8] is Termite. Nature of the assay: Field stake test (AWPA E7), southern yellow pine stakes in ground: termite attack. Conditions: 10 stakes, 10 = free of termite attack, 0 = completely attacked. The protocol:
(§2) 40″ by ¾″ by ¾″ pieces of southern yellow pine lumber were treated with the aqueous solution prepared in Example 1 according to the procedure described in the American Wood Preservers' Association test method E7, which is hereby incorporated by reference. The procedure is generally as follows. The southern yellow pine lumber pieces were placed in a pressure treating cylinder for about 30 minutes at about −90 kPa, injected with the aqueous solution, and pressurized to about 800 kPa for about 30 minutes. The pressure was released by the addition of air and the solution was drained.
(§3) This procedure was repeated with aqueous solutions containing 0.5 or 1.0% by weight of copper chromium arsenate (CCA) and aqueous solutions containing 0.5, 1.0, or 1.5% by weight of didecyl dimethyl ammonium chloride (DDAC).
(§4) After 11 months, the stakes were observed.

The subject of assay [9] is stains, molds, and fungi. The assay is described as follows: Wood preserving efficacy on freshly cut white birch wood (dip treatment, sealed bag). Also on record: key: 4 - Clean with no visible stain or mold; 3 - Trace amount of white/black fungal growth; 2 - Black and/or white fungal growth visible on all faces and ends; 1 - Heavy fungal growth. The protocol: The wood preserving efficacy of each aqueous test solution in Table 1 below was tested on freshly cut white birch wood as follows. All percentages in Table 1 are by weight. A branch of white birch tree measuring about 3 inches in diameter was cut into pieces about 6 inch in length. Each piece was then split into 4 sections. Each section was dipped into the test solution for about 1 minute and blotted with a paper towel to remove excess liquid. The sections were sealed in a clear plastic bag and stored at ambient conditions. The sections were observed after 1, 3, 7, and 12 weeks for the growth of stains, molds, and fungi. The aqueous test solutions were prepared by mixing the active ingredient with water.

Assay [10] concerns Decay. Nature of the assay: Field stake test (AWPA E7), southern yellow pine stakes in ground: decay. The following applies: 10 stakes, 10 = all stakes intact and free of decay, 0 = completely decayed. The protocol: as §2, §3, §4
In assay [11] the test system is Lentinus lepideus (L. lepideus), a brown rot fungus. Nature of the assay: Agar plate method, fungus growth inhibition. The assay is classed as cell-based. On the procedure: as §1
For assay [12], the system named is Coniophora puteana (C. puteana), a brown rot fungus. The assay is described as follows: Agar plate method, fungus growth inhibition. The assay is classed as cell-based. The protocol: as §1
Assay [13] has as its system T. versicolor (white rot fungi). Nature of the assay: Agar dilution plate method, wood rot fungi. In kind it is cell-based. The following applies: T. versicolor, 100% growth retardation, Table 14. On the procedure: (§5) The efficacy of the aqueous amine oxide solutions in Table 14 at various concentrations against the wood rot fungi T. versicolor (white rot fungi), G. trabeum (brown rot fungi), P. placenta (brown rot fungi), and C. globosum (soft rot decay fungi) were determined using the agar dilution plate method well known in the art. […] The percent retardation of the fungi was determined by the percentage change in the diameter of the fungi on the agar plate (i.e. Percent Retardation=((Diameter of Control)−(Diameter of Treated Fungi))/(Diameter of Control)*100%).
On the technique in general: In agar dilution the substance is mixed into plates at graded concentrations.

Assay [14] relates to P. placenta (brown rot fungi). Nature of the assay: Agar dilution plate method, wood rot fungi. In kind it is cell-based. The following applies: P. placenta, 100% growth retardation, Table 14. On the procedure: as §5
The test system of assay [15] is G. trabeum (brown rot fungi). The assay is described as follows: Agar dilution plate method, wood rot fungi. Conditions: G. trabeum, 100% growth retardation, Table 14. The assay is classed as cell-based. The protocol: as §5
Assay [16] has as its system C. globosum (soft rot decay fungi). Nature of the assay: Agar dilution plate method, wood rot fungi. The assay is classed as cell-based. The following applies: C. globosum, 100% growth retardation, Table 14. On the procedure:
as §5

The mark [17] stands for this setting: Field Site A, listed as 0.5% (w/w) DDAC.
Where [18] appears, read: Field Site A, listed as 1.0% (w/w) DDAC.
Setting [19] is: Field Site A, listed as […] (w/w) DDAC.

For the compound `CCCCCCCCCC[N+](C)(C)CCCCCCCCCC.[Cl-]` [Didecyldimethyl ammonium chloride, didecyldimethylammonium chloride, reference compound], the “Rating of treated tulip sections vs. Time” value amounted to 4 in [1] (1 week); 4 in assay [1] (3 weeks); 3.5 in assay [1] (7 weeks, listed as 0.32% Didecyldimethyl ammonium chloride); 4 in assay [1] (7 weeks, listed as 0.65% Didecyldimethyl ammonium chloride); 3.5 in assay [1] (11 weeks, listed as 0.32% Didecyldimethyl ammonium chloride); 4 in [1] (11 weeks, listed as 0.65% Didecyldimethyl ammonium chloride). The “Rating of treated tulip sections vs. Time” value turned out to be 4 in [7] (1 week); 2 in assay [7] (3 weeks, listed as 0.32% Didecyldimethyl ammonium chloride); 3.5 in [7] (3 weeks, listed as 0.65% Didecyldimethyl ammonium chloride); 2 in assay [7] (7 weeks); 2 in [7] (11 weeks). In addition, the “Rating of treated green chestnut oak sections vs. Time” value amounted to 3 in [2] (2 weeks), 2 in [2] (4 weeks), 2 in assay [2] (5 weeks) and 1 in [2] (9 weeks). The IC50 in assay [3] is given as 30-50 ppm; in assay [4], 10-40 ppm; in [5] it was 5-25 ppm; in assay [6], 10-20 ppm. Besides, the “Rating after 11 Months, Termite Attack” value in [8] (setting [17]) was 9.3 ± 0.9; in [8] (setting [18]), 9.9 ± 0.3; in assay [8] (setting [19]), 8.9 ± 1.3; in assay [8] (Field Site B) it was 10. In addition, the “Rating of treated white birch sections vs. Time” value in assay [9] (1 week) was 4; in [9] (3 weeks), 4; in assay [9] (7 weeks), 3; in assay [9] (12 weeks), 3. Further, the “Rating after 11 Months, Decay” value is recorded as 9.9 ± 0.3 in assay [10] (setting [17]), 10 in [10] (setting [18]), 10 in assay [10] (setting [19]) and 10 in [10] (Field Site B).

As for Coco-dimethylamine oxide, the IC50 in [11] is reported as 15 ppm; in assay [3], 40-50 ppm; in assay [4], 10-15 ppm; in assay [5], 3-7 ppm; in assay [6], 50-70 ppm; in assay [12], 80 ppm. Besides, the “MIC (ppm of amine oxides)” value in assay [13] was 750 ppm; in assay [14] it was 500-1000 ppm; in assay [15] it was 500 ppm; in assay [16], more than 1000 ppm. Also, the “Rating of treated white birch sections vs. Time” value in assay [9] (1 week) stood at 4; in assay [9] (3 weeks), 4; in [9] (7 weeks), 3; in [9] (12 weeks), 2.

In the case of `CCCCCCCCCCCCCCCC[N+](C)(C)[O-]` [Hexadecyl dimethylamine oxide, hexadecyl dimethylamine oxide], the IC50 in [11] is given as 3 ppm; in [3], 30 ppm; in [4], 25-30 ppm; in assay [5], 5-25 ppm; in [6], 20-50 ppm; in assay [12] it was 80 ppm. The MIC in assay [13] (Trametes versicolor, read-out: MIC (ppm of amine oxides)) is more than 1000 µg/mL; in [14] (read-out: MIC (ppm of amine oxides)) it was more than 1000 µg/mL; in [15] (Gloeophyllum trabeum, read-out: MIC (ppm of amine oxides)) it was more than 1000 µg/mL; in [16] (Chaetomium globosum, read-out: MIC (ppm of amine oxides)), more than 1000 µg/mL. The “Rating of treated white birch sections vs. Time” value in assay [9] (1 week) is listed as 3; in assay [9] (3 weeks), 2; in [9] (7 weeks), 2; in [9] (12 weeks), 2.

In general, MIC refers to the lowest concentration that inhibits growth of the organism.
